Literature values, collected in patent US20210069214A1, “TOPICAL COMPOSITIONS COMPRISING A CORTICOSTEROID FOR THE TREATMENT OF PSORIASIS IN PEDIATRIC PATIENTS” (priority 2019, published 2021).

Test system: HPA axis
Conditions: topical

dose that suppresses the HPA axis (as low as): 2 grams per day
SMILES: CCC(=O)O[C@]1(C(=O)CCl)[C@@H](C)C[C@H]2[C@@H]3CCC4=CC(=O)C=C[C@]4(C)[C@@]3(F)[C@@H](O)C[C@@]21C [Clobetasol propionate, [17-(2′-chloroacetyl)-9-fluoro-11-hydroxy-10,13,16-trimethyl-3-oxo-6,7,8,11,12,14,15,16-octahydrocyclopenta[a]phenanthren-17-yl]propanoate]
